Reference: PubChem BioAssay (NCI)
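In this assay, cells in 96-well plates receive the compound at five concentrations for 48 hours. Endpoints are linearly interpolated between the surrounding concentrations. GI50 = concentration required for 50% inhibition of growth. The concentration for full growth arrest is given as TGI.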

Experiments:
Test in all cases: growth of human tumour cells (NCI), 48 h
CAKI-1 renal = system: CAKI-1 renal
OVCAR-8 ovarian = system: OVCAR-8 ovarian
UACC-62 melanoma = system: UACC-62 melanoma
SW-620 colon = system: SW-620 colon
SK-OV-3 ovarian = system: SK-OV-3 ovarian
SF-295 CNS = system: SF-295 CNS
SK-MEL-2 melanoma = system: SK-MEL-2 melanoma
HL-60(TB) leukemia = system: HL-60(TB) leukemia
NCI-H226 lung = system: NCI-H226 lung
MDA-MB-231 breast = system: MDA-MB-231 breast
IGROV1 ovarian = system: IGROV1 ovarian
HS 578T breast = system: HS 578T breast
SN12C renal = system: SN12C renal
M14 melanoma = system: M14 melanoma
HCT-15 colon = system: HCT-15 colon
SR leukemia = system: SR leukemia
786-0 renal = system: 786-0 renal
SK-MEL-5 melanoma = system: SK-MEL-5 melanoma
NCI/ADR-RES ovarian = system: NCI/ADR-RES ovarian
KM12 colon = system: KM12 colon
MCF7 breast = system: MCF7 breast
U251 CNS = system: U251 CNS
DU-145 prostate = system: DU-145 prostate
UACC-257 melanoma = system: UACC-257 melanoma
CCRF-CEM leukemia = system: CCRF-CEM leukemia
MDA-MB-435 = system: MDA-MB-435
SNB-75 CNS = system: SNB-75 CNS
HOP-62 NSCLC = system: HOP-62 NSCLC
HCT-116 colon = system: HCT-116 colon
OVCAR-5 ovarian = system: OVCAR-5 ovarian
OVCAR-4 ovarian = system: OVCAR-4 ovarian
MALME-3M melanoma = system: MALME-3M melanoma
SF-539 CNS = system: SF-539 CNS
NCI-H23 lung = system: NCI-H23 lung
OVCAR-3 ovarian = system: OVCAR-3 ovarian
HT29 colon = system: HT29 colon
HCC-2998 colon = system: HCC-2998 colon
NCI-H460 lung = system: NCI-H460 lung
A498 renal = system: A498 renal
SF-268 CNS = system: SF-268 CNS
A549 NSCLC = system: A549 NSCLC
BT-549 breast = system: BT-549 breast
SNB-19 CNS = system: SNB-19 CNS
RPMI-8226 leukemia = system: RPMI-8226 leukemia
COLO 205 colon = system: COLO 205 colon
ACHN renal = system: ACHN renal
SK-MEL-28 melanoma = system: SK-MEL-28 melanoma
EKVX NSCLC = system: EKVX NSCLC
NCI-H522 lung = system: NCI-H522 lung
RXF 393 renal = system: RXF 393 renal
MOLT-4 leukemia = system: MOLT-4 leukemia
PC-3 prostate = system: PC-3 prostate
LOX IMVI melanoma = system: LOX IMVI melanoma
T-47D breast = system: T-47D breast
TK-10 renal = system: TK-10 renal
K-562 leukemia = system: K-562 leukemia
UO-31 renal = system: UO-31 renal

Compound CC(SC(C)C(=O)N/N=C/c1cccc(Cl)c1)C(=O)N/N=C\c1cccc(Cl)c1 (centres undefined) has a GI50 (CAKI-1 renal) of 61.4 µM, a TGI (CAKI-1 renal) greater than 100 µM and a GI50 (OVCAR-8 ovarian) of 4.78 µM. It also gave a TGI (OVCAR-8 ovarian) of 23.2 µM, a GI50 (UACC-62 melanoma) of 20.3 µM and a TGI (UACC-62 melanoma) of 46.2 µM. It also gave a GI50 (SW-620 colon) of 2600 nM, a TGI (SW-620 colon) of 6.65 µM and a GI50 (SK-OV-3 ovarian) of 13 µM. The TGI (SK-OV-3 ovarian) was 31.2 µM, the GI50 (SF-295 CNS) was 14.1 µM and the TGI (SF-295 CNS) was 35 µM. The GI50 (SK-MEL-2 melanoma) was 6.9 µM, the TGI (SK-MEL-2 melanoma) was 25.3 µM and the GI50 (HL-60(TB) leukemia) was 6.24 µM. For the same compound, the TGI (HL-60(TB) leukemia) was greater than 100 µM, the GI50 (NCI-H226 lung) was 17.5 µM and the TGI (NCI-H226 lung) was 43.1 µM. For the same compound, the GI50 (MDA-MB-231 breast) was 5.87 µM, the TGI (MDA-MB-231 breast) was 28.8 µM and the GI50 (IGROV1 ovarian) was 18.4 µM. For the same compound, the TGI (IGROV1 ovarian) was 69.3 µM, the GI50 (HS 578T breast) was 5.62 µM and the TGI (HS 578T breast) was 25.4 µM. The GI50 (SN12C renal) was 12.1 µM, the TGI (SN12C renal) was 53.9 µM and the GI50 (M14 melanoma) was 14.1 µM. The TGI (M14 melanoma) was 35.5 µM, the GI50 (HCT-15 colon) was 32.3 µM and the TGI (HCT-15 colon) was greater than 100 µM. For the same compound, the GI50 (SR leukemia) was 3.53 µM, the TGI (SR leukemia) was 11.1 µM and the GI50 (786-0 renal) was 14.5 µM. The TGI (786-0 renal) was 35.5 µM, the GI50 (SK-MEL-5 melanoma) was 16.3 µM and the TGI (SK-MEL-5 melanoma) was 31.4 µM. The GI50 (NCI/ADR-RES ovarian) was 71.7 µM, the TGI (NCI/ADR-RES ovarian) was greater than 100 µM and the GI50 (KM12 colon) was 11.4 µM. For the same compound, the TGI (KM12 colon) was 30.3 µM, the GI50 (MCF7 breast) was 5.16 µM and the TGI (MCF7 breast) was 18.6 µM. It also gave a GI50 (U251 CNS) of 3.74 µM, a TGI (U251 CNS) of 15.1 µM and a GI50 (DU-145 prostate) of 6.58 µM. It also gave a TGI (DU-145 prostate) of 25.2 µM, a GI50 (UACC-257 melanoma) of 32.3 µM and a TGI (UACC-257 melanoma) greater than 100 µM. For the same compound, the GI50 (CCRF-CEM leukemia) was 5.77 µM, the TGI (CCRF-CEM leukemia) was 52.3 µM and the GI50 (MDA-MB-435) was 5.02 µM. It also gave a TGI (MDA-MB-435) of 23.9 µM, a GI50 (SNB-75 CNS) of 4.28 µM and a TGI (SNB-75 CNS) of 19.5 µM. It also gave a GI50 (HOP-62 NSCLC) of 13.9 µM, a TGI (HOP-62 NSCLC) of 31.4 µM and a GI50 (HCT-116 colon) of 2650 nM. For the same compound, the TGI (HCT-116 colon) was 7.94 µM, the GI50 (OVCAR-5 ovarian) was 17.4 µM and the TGI (OVCAR-5 ovarian) was 44.2 µM. The GI50 (OVCAR-4 ovarian) was 1630 nM, the TGI (OVCAR-4 ovarian) was 3.35 µM and the GI50 (MALME-3M melanoma) was 13.9 µM. For the same compound, the TGI (MALME-3M melanoma) was 35.7 µM, the GI50 (SF-539 CNS) was 16.3 µM and the TGI (SF-539 CNS) was 44.2 µM. The GI50 (NCI-H23 lung) was 14 µM, the TGI (NCI-H23 lung) was 32.6 µM and the GI50 (OVCAR-3 ovarian) was 2030 nM. The TGI (OVCAR-3 ovarian) was 3.81 µM, the GI50 (HT29 colon) was 11.6 µM and the TGI (HT29 colon) was 32.1 µM. For the same compound, the GI50 (HCC-2998 colon) was 8 µM, the TGI (HCC-2998 colon) was 75.8 µM and the GI50 (NCI-H460 lung) was 2340 nM. For the same compound, the TGI (NCI-H460 lung) was 4.92 µM, the GI50 (A498 renal) was 14.6 µM and the TGI (A498 renal) was 32.2 µM. For the same compound, the GI50 (SF-268 CNS) was 10.2 µM, the TGI (SF-268 CNS) was 35.5 µM and the GI50 (A549 NSCLC) was 3.3 µM. It also gave a TGI (A549 NSCLC) of 12.3 µM, a GI50 (BT-549 breast) of 18.2 µM and a TGI (BT-549 breast) of 41.6 µM. The GI50 (SNB-19 CNS) was 21.7 µM, the TGI (SNB-19 CNS) was greater than 100 µM and the GI50 (RPMI-8226 leukemia) was 17.9 µM. The TGI (RPMI-8226 leukemia) was greater than 100 µM, the GI50 (COLO 205 colon) was 11.6 µM and the TGI (COLO 205 colon) was 38.9 µM. The GI50 (ACHN renal) was 5.53 µM, the TGI (ACHN renal) was greater than 100 µM and the GI50 (SK-MEL-28 melanoma) was 15.2 µM. The TGI (SK-MEL-28 melanoma) was 34.4 µM, the GI50 (EKVX NSCLC) was 13.3 µM and the TGI (EKVX NSCLC) was 59.7 µM. It also gave a GI50 (NCI-H522 lung) of 3.57 µM, a TGI (NCI-H522 lung) of 11.6 µM and a GI50 (RXF 393 renal) of 22.6 µM. It also gave a TGI (RXF 393 renal) of 90.1 µM, a GI50 (MOLT-4 leukemia) of 11.2 µM and a TGI (MOLT-4 leukemia) of 42 µM. The GI50 (PC-3 prostate) was 4.36 µM, the TGI (PC-3 prostate) was 25.8 µM and the GI50 (LOX IMVI melanoma) was 3.03 µM. The TGI (LOX IMVI melanoma) was 10.5 µM, the GI50 (T-47D breast) was 23 µM and the TGI (T-47D breast) was 93.8 µM. The GI50 (TK-10 renal) was 4.66 µM, the TGI (TK-10 renal) was 18.1 µM and the GI50 (K-562 leukemia) was 31.6 µM. The TGI (K-562 leukemia) was greater than 100 µM, the GI50 (UO-31 renal) was 14.8 µM and the TGI (UO-31 renal) was 94.4 µM.
